Data as given in patent publication US11203613B2, “Peptidomimetic proteasome inhibitors” (CORNELL UNIVERSITY, priority 2017, dated 2021).

Target: Human Constitutive (Hu C-20S) β5 Active Subunit (Homo sapiens, UniProt P28074)
Experiment: IC50 determination, human constitutive 20S proteasome β5c (suc-LLVY-AMC hydrolysis)
Format: biochemical
Conditions: Table 3; IC50 against human constitutive β5 active subunit; read-out: Hu-C20S β5

SMILES	IC50
CC(C)CCC(=O)N[C@@H](CC(=O)N(C)C(C)C)C(=O)N[C@@H](C)c1ncc(-c2ccc(F)cc2F)[nH]1 [CEN-78, (S)—N1-((S)-1-(5-(2,4-Difluorophenyl)-1H-imidazol-2-yl)ethyl)-N4-isopropyl-N4-methyl-2-(4-methylpentanamido)succinamide]	14.9 µM
CCN(CC)C(=O)C[C@H](NC(=O)CCC(C)C)C(=O)N[C@@H](C)c1ncc(-c2ccc(F)cc2F)[nH]1 [CEN-79, (S)—N1-((S)-1-(5-(2,4-Difluorophenyl)-1H-imidazol-2-yl)ethyl)-N4,N4-diethyl-2-(4-methylpentanamido)succinamide]	7.3 µM
Cc1cc(C(=O)N[C@@H](CC(=O)N2CCCC2)C(=O)N[C@@H](C)c2ncc(-c3ccc(F)cc3F)[nH]2)no1 [CEN-80, N—((S)-1-(((S)-1-(5-(2,4-Difluorophenyl)-1H-imidazol-2-yl)ethyl)amino)-1,4-dioxo-4-(pyrrolidin-1-yl)butan-2-yl)-5-methylisoxazole-3-carboxamide]	16.7 µM
C[C@H](NC(=O)[C@H](CC(=O)N1CCCC[C@@H]1C)NC(=O)CC1CC1)c1ncc(-c2ccc(F)cc2F)[nH]1 [CEN-81, (S)-2-(2-Cyclopropylacetamido)-N—((S)-1-(5-(2,4-difluorophenyl)-1H-imidazol-2-yl)ethyl)-4-((S)-2-methylpiperidin-1-yl)-4-oxobutanamide]	10.5 µM
C[C@H](NC(=O)[C@H](CC(=O)N1CCCC[C@@H]1C)NC(=O)C1CCC1)c1ncc(-c2ccc(F)cc2F)[nH]1 [CEN-82, N—((S)-1-(((S)-1-(5-(2,4-Difluorophenyl)-1H-imidazol-2-yl)ethyl)amino)-4-((S)-2-methylpiperidin-1-yl)-1,4-dioxobutan-2-yl)cyclobutanecarboxamide]	2.4 µM
C[C@H](NC(=O)[C@H](CC(=O)N1CCCC1)NC(=O)CCC(C)(C)C)c1ncc(-c2ccc(F)cc2F)[nH]1 [CEN-83, N—((S)-1-(((S)-1-(5-(2,4-Difluorophenyl)-1H-imidazol-2-yl)ethyl)amino)-1,4-dioxo-4-(pyrrolidin-1-yl)butan-2-yl)-4,4-dimethylpentanamide]	10.3 µM
CC(C)CCC(=O)N[C@@H](CC(=O)N1CCCCC1)C(=O)N[C@@H](C)c1ncc(-c2ccc(F)cc2F)[nH]1 [CEN-84, N—((S)-1-(((S)-1-(5-(2,4-Difluorophenyl)-1H-imidazol-2-yl)ethyl)amino)-1,4-dioxo-4-(piperidin-1-yl)butan-2-yl)-4-methylpentanamide]	7.3 µM
CC(C)C(=O)CN[C@@H](CC(=O)N1CCCC[C@@H]1C)C(=O)N[C@@H](C)c1ncc(-c2ccc(F)cc2F)[nH]1 [CEN-85, (S)—N—((S)-1-(5-(2,4-Difluorophenyl)-1H-imidazol-2-yl)ethyl)-2-((3-methyl-2-oxobutyl)amino)-4-((S)-2-methylpiperidin-1-yl)-4-oxobutanamide]	9.9 µM
CCS(=O)(=O)N[C@@H](CC(=O)N1CCCC[C@@H]1C)C(=O)N[C@@H](C)c1ncc(-c2ccc(F)cc2F)[nH]1 [CEN-86, (S)—N—((S)-1-(5-(2,4-Difluorophenyl)-1H-imidazol-2-yl)ethyl)-2-(ethylsulfonamido)-4-((S)-2-methylpiperidin-1-yl)-4-oxobutanamide]	28.2 µM
C[C@H](NC(=O)[C@H](CC(=O)N1CCCC[C@@H]1C)NC(=O)CCC1CC1)c1ncc(-c2ccc(F)cc2F)[nH]1 [CEN-87, (S)-2-(3-Cyclopropylpropanamido)-N—((S)-1-(5-(2,4-difluorophenyl)-1H-imidazol-2-yl)ethyl)-4-((S)-2-methylpiperidin-1-yl)-4-oxobutanamide]	11.7 µM
CC(C)CCC(=O)N[C@@H](CC(=O)N1CCCC[C@@H]1C)C(=O)N[C@@H](C)c1ncc(-c2ccc(F)cc2F)[nH]1 [CEN-88, N—((S)-1-(((S)-1-(5-(2,4-Difluorophenyl)-1H-imidazol-2-yl)ethyl)amino)-4-((S)-2-methylpiperidin-1-yl)-1,4-dioxobutan-2-yl)-4-methylpentanamide]	15.1 µM
C[C@H](NC(=O)[C@H](CC(=O)N1CCC[C@@H]1C)NC(=O)CCC(C)(C)C)c1ncc(-c2ccc(F)cc2F)[nH]1 [CEN-89, N—((S)-1-(((S)-1-(5-(2,4-Difluorophenyl)-1H-imidazol-2-yl)ethyl)amino)-4-((S)-2-methylpyrrolidin-1-yl)-1,4-dioxobutan-2-yl)-4,4-dimethylpentanamide]	5.7 µM
CC(C)CCC(=O)N[C@@H](CC(=O)N1CCCCCC1)C(=O)N[C@@H](C)c1ncc(-c2ccc(F)cc2F)[nH]1 [CEN-90, N—((S)-4-(Azepan-1-yl)-1-(((S)-1-(5-(2,4-difluorophenyl)-1H-imidazol-2-yl)ethyl)amino)-1,4-dioxobutan-2-yl)-4-methylpentanamide]	10.2 µM
CC(C)CCC(=O)N[C@@H](CC(=O)N1CCCC[C@H]1C)C(=O)N[C@@H](C)c1ncc(-c2ccc(F)cc2F)[nH]1 [CEN-91, N—((S)-1-(((S)-1-(5-(2,4-Difluorophenyl)-1H-imidazol-2-yl)ethyl)amino)-4-((R)-2-methylpiperidin-1-yl)-1,4-dioxobutan-2-yl)-4-methylpentanamide]	10.5 µM
CC(C)CCC(=O)N[C@@H](CC(=O)N1CCOC[C@@H]1C)C(=O)N[C@@H](C)c1ncc(-c2ccc(F)cc2F)[nH]1 [CEN-92, N—((S)-1-(((S)-1-(5-(2,4-Difluorophenyl)-1H-imidazol-2-yl)ethyl)amino)-4-((S)-3-methylmorpholino)-1,4-dioxobutan-2-yl)-4-methylpentanamide]	15.2 µM
C[C@H](NC(=O)[C@H](CC(=O)N1CCCC[C@@H]1C)NC(=O)c1cn(C)cn1)c1ncc(-c2ccc(F)cc2F)[nH]1 [CEN-93, N—((S)-1-(((S)-1-(5-(2,4-Difluorophenyl)-1H-imidazol-2-yl)ethyl)amino)-4-((S)-2-methylpiperidin-1-yl)-1,4-dioxobutan-2-yl)-1-methyl-1H-imidazole-4-carboxamide]	10.9 µM
Cc1cc(C(=O)N[C@@H](CC(=O)N2CCCC[C@@H]2C)C(=O)N[C@@H](C)c2ncc(-c3ccc(F)cc3F)[nH]2)no1 [CEN-94, N—((S)-1-(((S)-1-(5-(2,4-Difluorophenyl)-1H-imidazol-2-yl)ethyl)amino)-4-((S)-2-methylpiperidin-1-yl)-1,4-dioxobutan-2-yl)-5-methylisoxazole-3-carboxamide]	5.5 µM
CC(C)c1noc(N[C@@H](CC(=O)N2CCCC[C@@H]2C)C(=O)N[C@@H](C)c2ncc(-c3ccc(F)cc3F)[nH]2)n1 [CEN-95, (S)—N—((S)-1-(5-(2,4-Difluorophenyl)-1H-imidazol-2-yl)ethyl)-2-((3-isopropyl-1,2,4-oxadiazol-5-yl)amino)-4-((S)-2-methylpiperidin-1-yl)-4-oxobutanamide]	2.3 µM
C[C@H](NC(=O)[C@H](CC(=O)N1CCCC[C@@H]1C)NC(=O)C1CC(C)(C)C1)c1ncc(-c2ccc(F)cc2F)[nH]1 [CEN-96, N—((S)-1-(((S)-1-(5-(2,4-difluorophenyl)-1H-imidazol-2-yl)ethyl)amino)-4-((S)-2-methylpiperidin-1-yl)-1,4-dioxobutan-2-yl)-3,3-dimethylcyclobutane-1-carboxamide]	5.7 µM
CC(C)C1CC1C(=O)N[C@@H](CC(=O)N1CCCC[C@@H]1C)C(=O)N[C@@H](C)c1ncc(-c2ccc(F)cc2F)[nH]1 (stereo partly drawn) [CEN-97, N—((S)-1-(((S)-1-(5-(2,4-Difluorophenyl)-1H-imidazol-2-yl)ethyl)amino)-4-((S)-2-methylpiperidin-1-yl)-1,4-dioxobutan-2-yl)-2-isopropylcyclopropane-1-carboxamide]	4.8 µM
